These molecules were tested on bacterial strain LF82 binding to the glycoprotein BSA-(Mannose)3 (assay: Bacterial Binding Assay (BBA)). Conditions: read-out: Bacterial Binding Assay IC50, LF82/Luciferase strain binding to BSA-(Man)3 coated plates, luminescence.
Format: cell-based, Escherichia coli
Excerpt: The purpose of the Bacterial Binding Assay (BBA) is to determine the inhibition activity of
selective FimH antagonists on the bacterial strain LF82 binding to the glycoprotein BSA-(Mannose)3.
Below is a list of the Materials used to run the BBA are described below. • 1. LB broth: Supplier: Gibco, #10855 • 2. D-PBS: Supplier: Wisent, #311-425-CL • 3. LB agar plates • 4. 96-well black plate (high binding): Supplier: Costar, #3925 • 5. TopSeal™-A adhesive sealing films; Supplier PerkinElmer, #6005185 • 6. Carbonate-bicarbonate buffer pH 9.6 tablets, Supplier: Medicago, #09-8922-24 • 7. Water, Supplier: Gibco, #15230-162 • 8. Bovine serum albumin (BSA): Supplier: Sigma, #A-7888 • 9. (Man)3-BSA (α1-3, α1-6 Mannotriose-BSA, 1 mg), V-Labs, #NGP1336, lot #HGDX37-169-1 • 10. Tween 20: Supplier: Sigma, #P9416 • 11. Bright-Glo Luciferase Assay System: Supplier: Promega, #E2610 • 12. LF82/Luciferase strain: Invasive ability of an Escherichia coli strain isolated from the ileal mucosa of a patient with Crohn ? disease. Boudeau J, Glasser A L, Masseret E, Joly B, Darfeuille-Michaud A, Infect Immun. 1999, 67(9), 4499-509
Solutions and buffers used to run the BBA are described below. • 1. 0.04M carbonate-bicarbonate buffer (coating buffer) • 2. 40 μg/mL BSA-(Man)3: Dissolve 1 mg of (Man)3-BSA in 25 mL of water. • 3. 4000 μg/mL BSA • 4. 40 μg/mL BSA • 5. 1 μg/mL BSA-(Man)3: 150 μL of 40 μg/mL BSA-(Man)3+5.85 mL of 40 μg/mL BSA • 6. 0.5 μg/mL BSA-(Man)3 in 0.02M carbonate-bicarbonate buffer. • 7. 20 μg/mL BSA in 0.02M carbonate-bicarbonate buffer • 8. Blocking buffer (2% BSA/DPBS): 1 g of BSA in 50 mL D-PBS • 9. 2× binding buffer (0.2% BSA/D-PBS): 5 mL of blocking buffer+45 mL D-PBS. • 10. Washing buffer (D-PBS/0.01% Tween 20): 10 μL of Tween 20 in 100 mL D-PBS. • 11. 1× Bright-Glo Luciferase substrate: Dilute 1:1 the Bright-Glo Luciferase Assay System with D-PBS The experimental protocol to run the BBA is described below.
Overnight culture of LF82/Luciferase strain: Into two Falcon 50 mL tubes, add 20 mL of LB+20 μL of 50 mg/mL Kanamycin and inoculate with a loop from glycerol stock of the LF82/Luciferase strain. Incubate overnight at 37° C. with no shaking.
Glycoprotein coating of 96-well plates: Add 100 μL/well of 0.5-2 μg/mL BSA-(Man)3. 20 μg/mL BSA is used as the control background. Seal plate using an adhesive sealing film and incubate overnight at room temperature. Wash the 96-well plate three times with 150 μL/well of D-PBS, add 170 μL/well of blocking solution and incubate 45 min (minimum) at room temperature.
Preparation of bacterial suspension: Mix the two cultures tubes (40 mL) and perform a 1:10 dilution in LB (900 μl LB+100 μl culture. Measure optical density (OD) of the bacterial cultures. OD1 ˜5×10^8 cells/mL. Centrifuge LF82 culture for 20 min at 3500 rpm at room temperature. Re-suspend bacterial pellet in D-PBS and centrifuge again for 20 min at 3500 rpm. Re-suspend bacterial pellet in D-PBS to obtain a bacterial concentration of 2×10^9 bacteria/mL. Dilute 1/10 in D-PBS to obtain a final bacterial concentration of 2×10^8 bacteria/mL (=107 bacteria/50 μL). Perform 1/10 serial dilutions in LB of each bacterial suspension, plate 10 μL of dilutions on LB agar plates (final dilutions of 10^−7) and incubate overnight at 37° C. and count CFUs to determine the actual bacteria density in the assay.
Bacterial binding assay: Add 147 μL 2× binding buffer to compound plate (containing 3 μL of compound). After blocking step is performed (at least 45 min), wash plates three times with 200 μL/well of D-PBS. With a 100 μL multichannel manual pipettor, add 50 µL/well of compound diluted in 2× binding buffer. With a 100 μL multichannel manual pipettor, add 50 μL/well of bacterial suspension. Agitate at slow speed for 1 min and incubate 40-75 min at room temperature. Wash 5 times with 150 μL/well of washing buffer and then once with D-PBS. Add 100 μL/well of 1× Bright-Glo Luciferase substrate. […]
Work on `CCc1cc(C#C[C@H]2O[C@H](CO)[C@@H](O)[C@H](O)[C@@H]2O)ccc1C#C[C@H]1O[C@H](CO)[C@@H](O)[C@H](O)[C@@H]1O` [Compound 98, (2R,3S,4R,5S,6R)-2-[2-[3-ethyl-4-[2-[(2R,3S,4R,5S,6R)-3,4,5-trihydroxy-6-(hydroxymethyl)tetrahydropyran-2-yl]ethynyl]phenyl]ethynyl]-6-(hydroxymethyl)tetrahydropyran-3,4,5-triol] yielded an IC50 of 0.012 µM. In the case of `Cc1c(C#C[C@H]2O[C@H](CO)[C@@H](O)[C@H](O)[C@@H]2O)ccc(C#C[C@H]2O[C@H](CO)[C@@H](O)[C@H](O)[C@@H]2O)c1C` [Compound 99, (2R,3S,4R,5S,6R)-2-[2-[2,3-dimethy1-4-[2-[(2R,3S,4R,5S,6R)-3,4,5-trihydroxy-6-(hydroxymethyl)tetrahydropyran-2-yl]ethynyl]phenyl]ethynyl]-6-(hydroxymethyl)tetrahydropyran-3,4,5-triol], the IC50 is reported as 0.145 µM. With `Cc1cc(C#C[C@H]2O[C@H](CO)[C@@H](O)[C@H](O)[C@@H]2O)cc(C)c1C#C[C@H]1O[C@H](CO)[C@@H](O)[C@H](O)[C@@H]1O` [Compound 100, (2R,3S,4R,5S,6R)-2-[2-[3,5-dimethyl-4-[2-[(2R,3S,4R,5S,6R)-3,4,5-trihydroxy-6-(hydroxymethyl)tetrahydropyran-2-yl]ethynyl]phenyl]ethynyl]-6-(hydroxymethyl)tetrahydropyran-3,4,5-triol] the IC50 was 0.028 µM. Work on `N#Cc1cc(C#C[C@H]2O[C@H](CO)[C@@H](O)[C@H](O)[C@@H]2O)ccc1C#C[C@H]1O[C@H](CO)[C@@H](O)[C@H](O)[C@@H]1O` [Compound 101, 2,5-bis[2-[(2R,3S,4R,5S,6R)-3,4,5-trihydroxy-6-(hydroxymethyl)tetrahydropyran-2-yl]ethynyl]benzonitrile] yielded an IC50 of 0.021 µM. Work on `OC[C@H]1O[C@H](C#Cc2ccc(C#C[C@H]3O[C@H](CO)[C@@H](O)[C@H](O)[C@@H]3O)c(Cl)c2)[C@@H](O)[C@@H](O)[C@@H]1O` [Compound 102, (2R,3S,4R,5S,6R)-2-[2-[3-chloro-4-[2-[(2R,3S,4R,5S,6R)-3,4,5-trihydroxy-6-(hydroxymethyl)tetrahydropyran-2-yl]ethynyl]phenyl]ethynyl]-6-(hydroxymethyl)tetrahydropyran-3,4,5-triol] yielded an IC50 of 0.024 µM. For `CC(C)c1cc(C#C[C@H]2O[C@H](CO)[C@@H](O)[C@H](O)[C@@H]2O)ccc1C#C[C@H]1O[C@H](CO)[C@@H](O)[C@H](O)[C@@H]1O` [Compound 103, (2R,3S,4R,5S,6R)-2-(hydroxymethyl)-6-[2-[3-isopropyl-4-[2-[(2R,3S,4R,5S,6R)-3,4,5-trihydroxy-6-(hydroxymethyl)tetrahydropyran-2-yl]ethynyl]phenyl]ethynyl]tetrahydropyran-3,4,5-triol], the IC50 was 0.0074 µM. `Cc1cc(C#C[C@H]2O[C@H](CO)[C@@H](O)[C@H](O)[C@@H]2O)ccc1C#C[C@H]1O[C@H](CO)[C@@H](O)[C@H](O)[C@@H]1O` [Compound 104, (2R,3S,4R,5S,6R)-2-(hydroxymethyl)-6-[2-[3-methyl-4-[2-[(2R,3S,4R,5S,6R)-3,4,5-trihydroxy-6-(hydroxymethyl)tetrahydropyran-2-yl]ethynyl]phenyl]ethynyl]tetrahydropyran-3,4,5-triol] was tested, and the IC50 was 0.034 µM. `OC[C@H]1O[C@H](C#Cc2ccc(C#C[C@H]3O[C@H](CO)[C@@H](O)[C@H](O)[C@@H]3O)c(F)c2)[C@@H](O)[C@@H](O)[C@@H]1O` [Compound 105, (2R,3S,4R,5S,6R)-2-[2-[3-fluoro-4-[2-[(2R,3S,4R,5S,6R)-3,4,5-trihydroxy-6-(hydroxymethyl)tetrahydropyran-2-yl]ethynyl]phenyl]ethynyl]-6-(hydroxymethyl)tetrahydropyran-3,4,5-triol] was tested, and the IC50 was 0.046 µM. In the case of `OC[C@H]1O[C@H](C#Cc2ccc3oc4ccc(C#C[C@H]5O[C@H](CO)[C@@H](O)[C@H](O)[C@@H]5O)cc4c3c2)[C@@H](O)[C@@H](O)[C@@H]1O` [Compound 106, (2R,3S,4R,5S,6R)-2-(hydroxymethyl)-6-[2-[8-[2-[(2R,3S,4R,5S,6R)-3,4,5-trihydroxy-6-(hydroxymethyl)tetrahydropyran-2-yl]ethynyl]dibenzofuran-2-yl]ethynyl]tetrahydropyran-3,4,5-triol], the IC50 is reported as 0.0079 µM. In the case of `CCn1c2ccc(C#C[C@H]3O[C@H](CO)[C@@H](O)[C@H](O)[C@@H]3O)cc2c2cc(C#C[C@H]3O[C@H](CO)[C@@H](O)[C@H](O)[C@@H]3O)ccc21` [Compound 107, (2R,3S,4R,5S,6R)-2-[2-[9-ethyl-6-[2-[(2R,3S,4R,5S,6R)-3,4,5-trihydroxy-6-(hydroxymethyl)tetrahydropyran-2-yl]ethynyl]carbazol-3-yl]ethynyl]-6-(hydroxymethyl)tetrahydropyran-3,4,5-triol], the IC50 is reported as 0.013 µM. `OC[C@H]1O[C@H](C#Cc2ccc3[nH]c4ccc(C#C[C@H]5O[C@H](CO)[C@@H](O)[C@H](O)[C@@H]5O)cc4c3c2)[C@@H](O)[C@@H](O)[C@@H]1O` [Compound 108, (2R,3S,4R,5S,6R)-2-(hydroxymethyl)-6-[2-[6-[2-[(2R,3S,4R,5S,6R)-3,4,5-trihydroxy-6-(hydroxymethyl)tetrahydropyran-2-yl]ethynyl]-9H-carbazol-3-yl]ethynyl]tetrahydropyran-3,4,5-triol] gave an IC50 of 0.028 µM. With `OC[C@H]1O[C@H](C#Cc2ccc3c(c2)sc2cc(C#C[C@H]4O[C@H](CO)[C@@H](O)[C@H](O)[C@@H]4O)ccc23)[C@@H](O)[C@@H](O)[C@@H]1O` [Compound 109, (2R,3S,4R,5S,6R)-2-(hydroxymethyl)-6-[2-[7-[2-[(2R,3S,4R,5S,6R)-3,4,5-trihydroxy-6-(hydroxymethyl)tetrahydropyran-2-yl]ethynyl]dibenzothiophen-3-yl]ethynyl]tetrahydropyran-3,4,5-triol] the IC50 was 0.02 µM. `CCCn1c2cc(C#C[C@H]3O[C@H](CO)[C@@H](O)[C@H](O)[C@@H]3O)ccc2c2ccc(C#C[C@H]3O[C@H](CO)[C@@H](O)[C@H](O)[C@@H]3O)cc21` [Compound 110, (2R,3S,4R,5S,6R)-2-(hydroxymethyl)-6-[2-[9-propyl-7-[2-[(2R,3S,4R,5S,6R)-3,4,5-trihydroxy-6-(hydroxymethyl)tetrahydropyran-2-yl]ethynyl]carbazol-2-yl]ethynyl]tetrahydropyran-3,4,5-triol] showed an IC50 of 0.00089 µM. Work on `CCn1c2cc(C#C[C@H]3O[C@H](CO)[C@@H](O)[C@H](O)[C@@H]3O)ccc2c2ccc(C#C[C@H]3O[C@H](CO)[C@@H](O)[C@H](O)[C@@H]3O)cc21` [Compound 111, (2R,3S,4R,5S,6R)-2-[2-[9-ethyl-7-[2-[(2R,3S,4R,5S,6R)-3,4,5-trihydroxy-6-(hydroxymethyl)tetrahydropyran-2-yl]ethynyl]carbazol-2-yl]ethynyl]-6-(hydroxymethyl)tetrahydropyran-3,4,5-triol] yielded an IC50 of 0.0021 µM.

— patent US11634447B2 (priority 2012, dated 2023)
